This passage reports MIC results from patent US10729701B2, “Compounds that are analogs of squalamine, used as antibacterial agents” (VIRBAC, priority 2015, dated 2020).

In this experiment the test system is P. aeruginosa (PAO1). In words: MIC of conventional antibiotics alone. The class given is cell-based. The conditions noted are these: Pseudomonas aeruginosa; antibiotic alone, Gram-negative strain of P. aeruginosa (PAO1); read-out: MIC.

`C[C@H]1c2cccc(O)c2C(=O)C2=C(O)[C@]3(O)C(=O)C(C(N)=O)=C(O)[C@@H](N(C)C)[C@@H]3[C@@H](O)[C@@H]21` [doxycycline]: the MIC (commonly the smallest concentration in the dilution series that meets the test's criterion for growth inhibition) worked out at 40 µg/mL.
